According to PubChem BioAssay (NCI):
Values joined by “and” are separate entries in the source; they are usually repeats but may differ in a detail not shown here. Identical values can stand only once.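 96-well plates; 48 h exposure; 5 concentrations. Endpoints by linear interpolation between flanking doses. Not reached: highest tested concentration assigned. GI50 = concentration required for 50% inhibition of growth. TGI: total growth inhibition.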

Tests used:
Assay in all cases: NCI-60 cell line screen, 48 h
[1] = system: CCRF-CEM leukemia
[2] = system: ACHN renal
[3] = system: MCF7 breast
[4] = system: MALME-3M melanoma
[5] = system: MDA-MB-231 breast
[6] = system: MDA-MB-435
[7] = system: K-562 leukemia
[8] = system: HOP-62 NSCLC
[9] = system: SR leukemia
[10] = system: UACC-257 melanoma
[11] = system: MDA-N
[12] = system: NCI-H226 lung
[13] = system: LOX IMVI melanoma
[14] = system: A498 renal
[15] = system: SW-620 colon
[16] = system: NCI/ADR-RES ovarian

Row | Compound | TGI [1] | TGI [2] | TGI [3] | TGI [4] | TGI [5] | TGI [6] | TGI [7] | TGI [8] | TGI [9] | TGI [10] | TGI [11] | TGI [12] | TGI [13] | TGI [14] | TGI [15] | TGI [16] | GI50 [5] | GI50 [9] | GI50 [3] | GI50 [8]
1 | Cc1cc(S(=O)(=O)Nc2n[nH]c(Nc3ccc4ccccc4c3)n2)c(S)cc1Cl | > 100 µM | > 100 µM | > 100 µM | > 100 µM | > 100 µM | 84.2 µM | > 100 µM | > 100 µM | > 100 µM | > 100 µM | 39 µM | > 100 µM | > 100 µM | > 100 µM | > 100 µM | > 100 µM | – | – | – | –
2 | CCN(CC)c1ccc2cc(C(=O)NCc3ccccc3)c(=N)oc2c1 | > 100 µM | > 100 µM | > 100 µM | 63.6 µM | 97 µM | > 100 µM | > 26 µM | > 100 µM | > 100 µM | > 100 µM | > 100 µM | > 100 µM | > 100 µM | > 100 µM | > 100 µM | > 100 µM | – | – | – | –
3 | COc1cc(C2SCC(=O)N2c2ccc(NC(C)=O)cc2)cc(OC)c1OC (centres undefined) | > 100 µM | > 100 µM | > 100 µM | – | > 100 µM | > 100 µM | > 100 µM | – | > 100 µM | > 100 µM | > 100 µM | > 100 µM | > 100 µM | > 100 µM | > 100 µM | > 100 µM | – | – | – | –
4 | CCOC(=O)[C@@H]1ON2O[C@H](OC3CCCCC3c3ccccc3)C[C@H]3OC(=O)[C@@H]1C32 (some centres undefined) | 0.614 µM | > 100 µM | > 100 µM | – | > 100 µM | > 100 µM | > 100 µM | > 100 µM | > 100 µM | > 100 µM | > 100 µM | > 100 µM | > 100 µM | > 100 µM | > 100 µM | > 100 µM | – | – | – | –
5 | NC(=O)C(=CNC(=S)Nc1ccc(S(=O)(=O)Nc2ccccn2)cc1)C(N)=O | > 100 µM | > 100 µM | > 100 µM | – | > 100 µM | > 100 µM | > 100 µM | > 100 µM | > 100 µM | > 100 µM | > 100 µM | > 100 µM | > 100 µM | > 100 µM | > 100 µM | > 100 µM | – | – | – | –
6 | CCN(CC)C(=S)SC1C(=O)NC(=O)NC1=O | > 100 µM | > 100 µM | > 100 µM | > 100 µM | > 100 µM | > 100 µM | > 100 µM | > 100 µM | > 100 µM | > 100 µM | > 100 µM | > 100 µM | > 100 µM | 6.06 µM | > 100 µM | > 100 µM | – | – | – | –
7 | CC(=O)OCC1OC(n2c(N)c(C#N)c(C)c(C#N)c2=S)C(OC(C)=O)C(OC(C)=O)C1OC(C)=O (centres undefined) | > 100 µM | > 100 µM | > 100 µM | > 100 µM | > 100 µM | > 100 µM | – | > 100 µM | > 100 µM | > 100 µM | > 100 µM | > 100 µM | > 100 µM | > 100 µM | > 100 µM | > 100 µM | 40 µM and > 100 µM | 39.5 µM and > 100 µM | – | –
8 | CN=C(N)N=Nc1c(O)[nH]c2ccccc12 | > 100 µM | > 100 µM | > 100 µM | > 100 µM | > 100 µM | > 100 µM | > 100 µM | > 100 µM | > 100 µM | > 100 µM | > 100 µM | > 100 µM | > 100 µM | > 100 µM | > 100 µM | > 100 µM | – | – | – | –
9 | c1ccc(-c2c3c(nc4c2CC[C@H]4NC2=NCCN2)[C@@H](NC2=NCCN2)CC3)cc1 | > 100 µM | > 100 µM | > 100 µM | > 100 µM | > 100 µM | > 100 µM | > 100 µM | > 100 µM | > 100 µM | > 100 µM | > 100 µM | > 100 µM | > 100 µM | > 100 µM | > 100 µM | > 100 µM | – | – | – | –
10 | Oc1cnc2c(O)cccc2c1 | – | 92.9 µM | > 100 µM | > 100 µM | > 100 µM | > 100 µM | > 100 µM | > 100 µM | > 100 µM | > 100 µM | > 100 µM | 85.5 µM | > 100 µM | > 100 µM | > 100 µM | 66.5 µM | – | – | – | –
11 | CC(C)CC1c2[nH]c3ccccc3c2C[C@H]2C(=O)NC(CCCCNC(=O)OC(C)(C)C)C(=O)N12 (some centres undefined) | – | > 100 µM | > 100 µM | 78.5 µM | 51.1 µM | > 100 µM | > 100 µM | > 100 µM | 50 µM | > 100 µM | > 100 µM | > 100 µM | > 100 µM | > 100 µM | > 100 µM | > 100 µM | – | – | – | –
12 | O=C(Cn1c(=O)oc2ccc(C(=O)c3ccc(F)cc3)cc21)c1ccccc1 | > 100 µM | > 100 µM | > 100 µM | > 100 µM | > 100 µM | > 100 µM | > 100 µM | > 100 µM | > 100 µM | > 100 µM | > 100 µM | > 100 µM | > 100 µM | 93.3 µM | > 100 µM | > 100 µM | – | – | – | –
13 | CC1OC(OC2C(OC(=O)[C@]34CCC(C)(C)C[C@H]3C3=CC[C@@H]5[C@@]6(C)CC[C@H](OC7OC(CO)C(O)C(O)C7OC7OC(CO)C(O)C(O)C7O)C(C)(C)[C@@H]6CC[C@@]5(C)[C@]3(C)CC4)OCC(O)C2O)C(O)C(O)C1OC1OCC(O)C(OC2OCC(O)C(O)C2O)C1O (some centres undefined) | 30 µM and 31.6 µM | 15.4 µM and 18.3 µM | 11 µM and 7.69 µM | 6.6 µM and 7.27 µM | 8.71 µM and 9.09 µM | 3.59 µM and 3.22 µM | 18.8 µM and 17.6 µM | 23.3 µM and 11.2 µM | 8.14 µM and 8.97 µM | 6.02 µM and 5.36 µM | 3.58 µM and 3.09 µM | 13.9 µM and 12.4 µM | 24 µM and 23.6 µM | 4.44 µM and 3.95 µM | 25.3 µM and 23.6 µM | 18.1 µM and 16.2 µM | – | – | 3.76 µM and 1.87 µM | 9.23 µM and 3.83 µM
14 | CSc1nn(C)cc2nc(C)nc1-2 | > 100 µM | > 100 µM | > 100 µM | – | > 100 µM | > 100 µM | > 100 µM | > 100 µM | > 100 µM | > 100 µM | > 100 µM | > 100 µM | – | > 100 µM | > 100 µM | > 100 µM | – | – | – | –
